Where a SMILES comes first, the peptide text is derived from it.
How the values were obtained:
[1] = Monikawa et al., Experientia 32(9), 1104-1106 (1976); cited from earlier work
[2] = test system: serum calcium concentration; conditions: standard used in the rat assay; cited from earlier work
[3] = test system: serum calcium concentration; assay: Biological assay of calcitonin analogs in vivo: reduction of serum calcium concentration, 2×2 parallel line assay; conditions: rats, subcutaneous injection, blood withdrawn 1 hour later, versus synthetic salmon calcitonin standard
Experimental: Biological Assay of Calcitonin Analogs in Vivo
The biological potency of des-19-leucine, 20-glutamine, 21-threonine-salmoncalcitonin was determined by comparing the reduction of serum calcium concentration which followed administration by graded doses of des-Leu^19, Gln^20, Thr^21 -SCT and synthetic salmon calcitonin standard. Rats were divided into four groups of seven animals, and each group was assigned at random to a dose of standard or test solution. Low and high doses were chosen from the linear portion of the dose-response curve. For the salmon calcitonin standard, the values were 0.7 and 2.1 ng. peptide/100 g. body weight (BW). This dose approximates 3 and 9 MU/100 g. BW. Peptides were given by subcutaneous injection (0.2 ml/100 g. BW) and blood was withdrawn 1 hour later for serum calcium determination. Sera are processed and analyzed within two hours of collection. […]. Results were analyzed by a 2×2 parallel line assay [Gaddum, J. H., J. Pharm. Pharmacol., 6, 345 (1953)]. The standard salmon calcitonin used was independently determined to contain greater than 4,000 IU/mg. des-Leu^19, Gln^20, Thr^21 -SCT assayed at 7100 IU/mg.

## eel calcitonin [synthetic eel calcitonin]
[1]
  hypocalcemic potency: around 4300 IU/mg.

## (1,7-alpha-L-amino-suberic acid) eel calcitonin
[1]
  hypocalcemic potency: about 3400 IU/mg.

## Salmon calcitonin [standard salmon calcitonin]
[2]
  potency of the standard salmon calcitonin, independently determined: greater than 4,000 IU/mg

## CC(C)C[C@H](NC(=O)[C@H](CCCCN)NC(=O)CNC(=O)[C@H](CC(C)C)NC(=O)[C@@H](NC(=O)[C@@H]1CSSC[C@H](N)C(=O)N[C@@H](CO)C(=O)N[C@@H](CC(N)=O)C(=O)N[C@@H](CC(C)C)C(=O)N[C@@H](CO)C(=O)N[C@@H]([C@@H](C)O)C(=O)N1)C(C)C)C(=O)N[C@@H](CO)C(=O)N[C@@H](CCC(N)=O)C(=O)N[C@@H](CCC(=O)O)C(=O)N[C@@H](CC(C)C)C(=O)N[C@@H](Cc1c[nH]cn1)C(=O)N[C@@H](CCCCN)C(=O)N[C@@H](Cc1ccc(O)cc1)C(=O)N1CCC[C@H]1C(=O)N[C@@H](CCCNC(=N)N)C(=O)N[C@H](C(=O)N[C@@H](CC(N)=O)C(=O)N[C@H](C(=O)NCC(=O)N[C@@H](CO)C(=O)NCC(=O)N[C@H](C(=O)N1CCC[C@H]1C(N)=O)[C@@H](C)O)[C@@H](C)O)[C@@H](C)O [des-Leu^19, Gln^20, Thr^21 -SCT, des-19-leucine, 20-glutamine, 21-threonine-salmon calcitonin] (HELM PEPTIDE1{C.S.N.L.S.T.C.V.L.G.K.L.S.Q.E.L.H.K.Y.P.R.T.N.T.G.S.G.T.P.[am]}$PEPTIDE1,PEPTIDE1,1:R3-7:R3$$$V2.0)
[3]
  biological potency (reduction of serum calcium concentration): 7100 IU/mg
